These results are taken from US8309554B2 (priority 2008, dated 2012).

The IC50 is the concentration that inhibits the measured activity by half.

Several values for one entry are separate records, joined by “and”; a condition that tells them apart may be missing. Identical values can stand only once. Like-named read-outs stand apart in the source and are kept apart here.

One data set has as its system H460 spheroid. As to the kind of experiment: cells. As to conditions: Homo sapiens. The class given is cell-based.
The test system of another data set is H460. As to the kind of experiment: cells. The class given is cell-based. To be noted: for IC50: Homo sapiens.
A further data set can be described thus: in vivo. As to conditions: mouse, ip.
The test system of the next data set is HT29. Kind of data set: cells. It is filed as cell-based. To be noted: for IC50: Homo sapiens, HT-29, 2 h.
Data set [1] has as its system H460 non small cell lung xenograft. As to conditions: mouse, in vivo.
Data set [2] deals with HT 1080 sarcoma xenograft. To be noted: mouse, in vivo.
The mark [3] stands for this setting: NCI-H460, read-out: 2 h Air H460 spheroid IC50.
Where [4] appears, read: NCI-H460, read-out: 2 h N2 H460 spheroid IC50.
Where [5] appears, read: NCI-H460, read-out: 2 h Air H460 monolayer IC50.
Setting [6] is: NCI-H460, read-out: 2 h N2 H460 monolayer IC50.
Where [7] appears, read: NCI-H460, 2 h, read-out: 2 hr Air H460 IC50.
[8] abbreviates: NCI-H460, 2 h, read-out: 2 hr N2 H460 IC50.

As for `CN(c1ccc(N(CCCl)CCCl)cc1)S(=O)(=O)Cn1ccnc1[N+](=O)[O-]` [TH-1107], the half-inhibitory concentration (IC50) with H460 spheroid (setting [3]) was less than 0.69 µM; in the data set on H460 spheroid (setting [4]) it was less than 0.69 µM; with H460 (setting [5]), 113 µM; in the data set on H460 (setting [6]) it was 7.9 µM.
Turning to `Cc1cc(OS(=O)(=O)C(C)c2ccsc2[N+](=O)[O-])ccc1N(CCCl)CCCl` (stereo not drawn) [TH-1120], the IC50 with H460 spheroid (setting [3]) was less than 0.08 µM; in the data set on H460 spheroid (setting [4]) it was less than 0.08 µM; in the data set on H460 (setting [5]), 2.4 µM; in the data set on H460 (setting [6]), 0.3 µM.
Turning to `CN(c1ccc(N(CCCl)CCCl)cc1)S(=O)(=O)C(C)(C)c1cnc([N+](=O)[O-])n1C` [TH-1126], the IC50 in the data set on H460 spheroid (setting [3]) is less than 0.69 µM; in the data set on H460 spheroid (setting [4]), less than 0.69 µM; in the data set on H460 (setting [5]), 45 µM; with H460 (setting [6]), 7.1 µM.
Take `CC(n1ccnc1[N+](=O)[O-])S(=O)(=O)N(C)c1ccc(N(CCCl)CCCl)cc1` (stereo not drawn) [TH-1127]: the 50% inhibitory concentration (IC50) with H460 spheroid (setting [3]) is less than 0.69 µM; in the data set with H460 spheroid (setting [4]) it was less than 0.69 µM; in the data set with H460 (setting [5]), 37 µM; with H460 (setting [6]), 3.9 µM.
In turn, `CS(=O)(=O)CCC(c1ccsc1[N+](=O)[O-])S(=O)(=O)Oc1ccc(N(CCCl)CCCl)cc1` (stereo not drawn) [TH-1266, 3-(4-(N,N-bis-(2-Chloroethyl)amino)phenoxysulfonyl-(2-methylsulfonyl)ethyl)methyl-2-nitrothiophene] returned an MTD in the data set “in vivo” of 40 mg/kg. Also, the “HT29 HCR: Air/N2” value in the data set on HT29 is reported as greater than 29. Further, the concentration for half-maximal inhibition (IC50) in the data set on HT29 (read-out: 2 hr Air HT29 IC50) was greater than 1000 µM; with HT29 (read-out: 2 hr N2 HT29 IC50), 34 µM; in the data set with H460 (setting [7]) it was 55 µM; in the data set with H460 (setting [8]) it was 0.3 µM. In addition, in data set [1], the “tumor growth delay to 500 mm^3” value is 25 days and 21 days. Besides, in the data set with H460, the “H460 HCR: Air/N2” value turned out to be 183.
On to `O=[N+]([O-])c1sccc1C(Cc1ccc(O)nc1)S(=O)(=O)Oc1ccc(N(CCCl)CCCl)cc1` (stereo not drawn) [TH-1305, 3-(4-(N,N-bis-(2-Chloroethyl)amino)phenoxysulfonyl-(2-hydroxypyridin-5-yl-methyl))methyl-2-nitrothiophene], for which, in “in vivo”, the MTD worked out at 20 mg/kg. Moreover, in the data set with HT29, the “HT29 HCR: Air/N2” value was greater than 44. The concentration for half-maximal inhibition (IC50) in the data set on HT29 (read-out: 2 hr Air HT29 IC50) was greater than 300 µM; in the data set with HT29 (read-out: 2 hr N2 HT29 IC50), 6.8 µM; in the data set with H460 (setting [7]), 47 µM; with H460 (setting [8]), 0.7 µM. Besides, the “tumor growth delay to 500 mm^3” value in data set [1] amounted to 10 days. Moreover, in the data set on H460, the “H460 HCR: Air/N2” value is on record as 67.
On to `O=[N+]([O-])c1sccc1C(Cc1ccc(OCCO)nc1)S(=O)(=O)Oc1ccc(N(CCCl)CCCl)cc1` (stereo not drawn) [TH-1315, 3-(4-(N,N-bis-(2-Chloroethyl)amino)phenoxysulfonyl-(2-(2-hydroxyethoxy)pyridin-5-yl-methyl))methyl-2-nitrothiophene], for which the MTD in “in vivo” is 50 mg/kg. Moreover, the “tumor growth delay to 500 mm^3” value in data set [2] (ip, 50 mg/kg) amounted to 6 days; in data set [1] it was 19 days. The “HT29 HCR: Air/N2” value with HT29 is given as greater than 23. Besides, the IC50 with HT29 (read-out: 2 hr Air HT29 IC50) was greater than 300 µM; with HT29 (read-out: 2 hr N2 HT29 IC50) it was 13 µM; with H460 (setting [7]), 99.5 µM; in the data set with H460 (setting [8]), 0.7 µM. The “H460 HCR: Air/N2” value in the data set on H460 is 142.
Consider `O=[N+]([O-])c1sccc1C(Cc1cccnc1)S(=O)(=O)Oc1ccc(N(CCCl)CCCl)cc1` (stereo not drawn) [TH-1331, 3-(4-(N,N-bis-(2-Chloroethyl)amino)phenoxysulfonyl-(pyridin-3-yl-methyl))methyl-2-nitrothiophene], for which, in “in vivo”, the MTD is 60 mg/kg. Further, the “HT29 HCR: Air/N2” value in the data set with HT29 is 15. Further, the IC50 was determined as 166 µM with HT29 (read-out: 2 hr Air HT29 IC50), 11 µM with HT29 (read-out: 2 hr N2 HT29 IC50), 103 µM with H460 (setting [7]) and 1.5 µM in the data set on H460 (setting [8]). The “tumor growth delay to 500 mm^3” value in data set [1] is 11 days and 10 days. Further, the “H460 HCR: Air/N2” value in the data set with H460 is given as 69.
In turn, `O=C(CO)Nc1ccc(CC(c2ccsc2[N+](=O)[O-])S(=O)(=O)Oc2ccc(N(CCCl)CCCl)cc2)cn1` (stereo not drawn) [TH-1354, 3-(4-(N,N-bis-(2-Chloroethyl)amino)phenoxysulfonyl-(2-(hydroxyacetylamino)pyridin-5-yl-methyl))methyl-2-nitrothiophene] came in with an MTD in the data set “in vivo” of 40 mg/kg. Also, the “HT29 HCR: Air/N2” value with HT29 stood at 33. For the same molecule, the half-maximal inhibitory concentration (IC50) with HT29 (read-out: 2 hr Air HT29 IC50) amounted to 660 µM; in the data set on HT29 (read-out: 2 hr N2 HT29 IC50), 20 µM; in the data set on H460 (setting [7]), 156 µM; with H460 (setting [8]), 2.4 µM. Further, the “tumor growth delay to 500 mm^3” value in data set [1] was 15 days and 12 days. For the same molecule, in the data set on H460, the “H460 HCR: Air/N2” value was found to be 65.
With `Cn1cncc1CC(c1ccsc1[N+](=O)[O-])S(=O)(=O)Oc1ccc(N(CCCl)CCCl)cc1` (stereo not drawn) [TH-1365], the MTD in “in vivo” came out at 10 mg/kg. In addition, the “HT29 HCR: Air/N2” value in the data set with HT29 was 25. For the same molecule, the half-inhibitory concentration (IC50) in the data set on HT29 (read-out: 2 hr Air HT29 IC50) was 270 µM; in the data set on HT29 (read-out: 2 hr N2 HT29 IC50) it was 11 µM; in the data set on H460 (setting [7]), 23 µM; in the data set on H460 (setting [8]), 0.7 µM. Besides, the “tumor growth delay to 500 mm^3” value in data set [1] came to 10 days. Moreover, the “H460 HCR: Air/N2” value in the data set with H460 is 33.
On to `COCC(=O)Nc1ccc(CC(c2ccsc2[N+](=O)[O-])S(=O)(=O)Oc2ccc(N(CCCl)CCCl)cc2)cc1` (stereo not drawn) [TH-1479], for which, in the data set on HT29, the “HT29 HCR: Air/N2” value came out at 2.7. Besides, the IC50 was greater than 300 µM with HT29 (read-out: 2 hr Air HT29 IC50), 110 µM with HT29 (read-out: 2 hr N2 HT29 IC50), 260 µM in the data set on H460 (setting [7]) and 0.8 µM with H460 (setting [8]). Moreover, the “H460 HCR: Air/N2” value in the data set with H460 is 325.
For `O=[N+]([O-])c1sccc1C(Cc1ccc(O[C@H]2CCCC[C@@H]2O)nc1)S(=O)(=O)Oc1ccc(N(CCCl)CCCl)cc1` (stereo partly drawn) [TH-1487], the “HT29 HCR: Air/N2” value in the data set with HT29 is 1. Besides, the 50% inhibitory concentration (IC50) with HT29 (read-out: 2 hr Air HT29 IC50) came out at 240 µM; in the data set on HT29 (read-out: 2 hr N2 HT29 IC50), 280 µM; with H460 (setting [7]), 51 µM; in the data set with H460 (setting [8]), 0.8 µM. Also, in the data set with H460, the “H460 HCR: Air/N2” value came to 64.
`O=[N+]([O-])c1sccc1C(COC1CCCCC1)S(=O)(=O)Oc1ccc(N(CCCl)CCCl)cc1` (stereo not drawn) [TH-1521]: the “HT29 HCR: Air/N2” value in the data set with HT29 is greater than 3.2. Further, the IC50 in the data set on HT29 (read-out: 2 hr Air HT29 IC50) is greater than 300 µM; in the data set with HT29 (read-out: 2 hr N2 HT29 IC50) it was 93 µM; in the data set on H460 (setting [7]), 234 µM; in the data set on H460 (setting [8]) it was 1.3 µM. For the same molecule, the “H460 HCR: Air/N2” value with H460 stood at 180.
Consider `CCN(CC)CC#CCC(c1ccsc1[N+](=O)[O-])S(=O)(=O)Oc1ccc(N(CCCl)CCCl)cc1` (stereo not drawn) [TH-1545], for which the “HT29 HCR: Air/N2” value with HT29 is given as 12. Also, the IC50 was 60 µM in the data set on HT29 (read-out: 2 hr Air HT29 IC50), 5 µM in the data set on HT29 (read-out: 2 hr N2 HT29 IC50), 102 µM in the data set on H460 (setting [7]) and 2 µM with H460 (setting [8]). In addition, the “H460 HCR: Air/N2” value in the data set with H460 turned out to be 51.
As to `COc1cccc2c1C(=O)c1c(O)c3c(c(O)c1C2=O)C[C@@](O)(C(=O)CO)C[C@@H]3O[C@H]1C[C@H](N)[C@H](O)[C@H](C)O1` [doxorubicin, reference compound], in data set [2], the “tumor growth delay to 500 mm^3” value was 10 days.
